Data reported in patent US11053204B2, “Pyrimidinyloxy benzene derivatives as herbicides” (FMC Corporation, priority 2015, dated 2021).

Assays:
Assay in all cases: Test C preemergence, plant response rating
Format in all cases: in vivo
[1] = system: windgrass (Apera spica-venti)
[2] = system: pigweed, palmer (palmer pigweed, Amaranthus palmeri)
[3] = system: johnsongrass (Sorghum halepense)
[4] = system: barnyardgrass (Echinochloa crus-galli); conditions: Preemergence
[5] = system: wild poinsettia (Euphorbia heterophylla)
[6] = system: nightshade (eastern black nightshade, Solanum ptycanthum)

C=C(Br)COC(=O)c1c(Br)cccc1Oc1ncc(Cl)cn1 [Compound 61]
Plant response rating, Windgrass ([1]; 16 g ai/ha, scale 0 to 100): 0
Plant response rating, Windgrass ([1]; 31 g ai/ha, scale 0 to 100): 5
Plant response rating, Windgrass ([1]; 62 g ai/ha, scale 0 to 100): 40
Plant response rating, Windgrass ([1]; 125 g ai/ha, scale of 0 to 100): 70
Plant response rating, Pigweed, Palmer ([2]; 16 g ai/ha, scale 0 to 100): 40
Plant response rating, Pigweed, Palmer ([2]; 31 g ai/ha, scale 0 to 100): 50
Plant response rating, Pigweed, Palmer ([2]; 62 g ai/ha, scale 0 to 100): 70
Plant response rating, Pigweed, Palmer ([2]; 125 g ai/ha, scale of 0 to 100): 75
Plant response rating, Johnsongrass ([3]; 16 g ai/ha, scale 0 to 100): 0
Plant response rating, Johnsongrass ([3]; 31 g ai/ha, scale 0 to 100): 0
Plant response rating, Johnsongrass ([3]; 62 g ai/ha, scale 0 to 100): 0
Plant response rating, Johnsongrass ([3]; 125 g ai/ha, scale of 0 to 100): 20
Plant response rating, Barnyardgrass ([4]; 62 g ai/ha, scale of 0 to 100): 50
Plant response rating, Barnyardgrass ([4]; 125 g ai/ha, scale of 0 to 100): 65
Plant response rating, Barnyardgrass ([4]; 16 g ai/ha, scale 0 to 100): 0
Plant response rating, Barnyardgrass ([4]; 31 g ai/ha, scale 0 to 100): 0
Plant response rating, Poinsettia, Wild ([5]; 16 g ai/ha, scale 0 to 100): 0
Plant response rating, Poinsettia, Wild ([5]; 31 g ai/ha, scale 0 to 100): 0
Plant response rating, Poinsettia, Wild ([5]; 62 g ai/ha, scale 0 to 100): 0
Plant response rating, Poinsettia, Wild ([5]; 125 g ai/ha, scale of 0 to 100): 0
Plant response rating, Nightshade ([6]; 16 g ai/ha, scale 0 to 100): 60
Plant response rating, Nightshade ([6]; 31 g ai/ha, scale 0 to 100): 60
Plant response rating, Nightshade ([6]; 62 g ai/ha, scale 0 to 100): 50
Plant response rating, Nightshade ([6]; 125 g ai/ha, scale of 0 to 100): 75
